Holding throughout (assay): NCI-60 cell line screen, 48 h
Test [1] relates to 786-0 renal.
Test [2] relates to CCRF-CEM leukemia.
Test [3] has as its system DU-145 prostate.
Test [4] concerns LOX IMVI melanoma.
Test [5] deals with MOLT-4 leukemia.
For test [6], the system named is PC-3 prostate.
In test [7] the test system is SK-OV-3 ovarian.
The subject of test [8] is U251 CNS.

The structures appear in SMILES notation.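 Dose response: 5 concentrations. Exposure: 48 h. Format: 96-well plates. Endpoint: linear interpolation; highest concentration if not reached. At the GI50, growth is halved. Definition used: TGI = concentration required for complete inhibition of growth.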

`COc1ccccc1CNCCCN1C(=O)c2ccc3c4c(ccc(c24)C1=O)C(=O)N(CCCN)C3=O`: the GI50 was 1.47 µM in test [1]; 0.441 µM in test [2]; 1.38 µM in test [3]; 0.685 µM in test [4]; 0.446 µM in test [5]; 1.68 µM in test [6]. The GI50 was 2.53 µM in test [7] and 1.77 µM in test [8]. The TGI in test [1] turned out to be 4.89 µM; in test [2], 2.76 µM; in test [3] it was 2.71 µM; in test [4], 2.87 µM; in test [5], 2.24 µM; in test [6], 4.95 µM. For the same compound, the TGI in test [7] is 7.18 µM; in test [8], 3.99 µM.

For `O=[N+]([O-])c1ccc(N=Nc2ccc(O)c3ccccc23)cc1`, the GI50 in test [1] was 8.59 µM; in test [2] it was 4.24 µM; in test [3], 6.66 µM; in test [4] it was 2.5 µM; in test [5], 5.22 µM; in test [6], 1.67 µM. Moreover, the GI50 in test [7] is 11.9 µM; in test [8], 3.12 µM. The TGI in test [1] was above 100 µM; in test [2] it was 35.7 µM; in test [3], above 100 µM; in test [4], 13.6 µM; in test [5] it was above 100 µM; in test [6], above 100 µM. Moreover, the TGI in test [7] worked out at 47.7 µM; in test [8], 25.8 µM.

Regarding `COc1ccc(C2=C(c3ccc(OC)c(OC)c3)C(=O)N3CCCC3C2)cc1` (stereo unspecified), the GI50 was 27.6 µM in test [1]; 8.03 µM in test [2]; 30.8 µM in test [3]; 10.4 µM in test [4]; 2.72 µM in test [5]; 9.73 µM in test [6]. The GI50 in test [7] is 30.5 µM; in test [8] it was 7.47 µM. The TGI in test [1] was above 100 µM; in test [2] it was above 100 µM; in test [3] it was above 86.8 µM; in test [4] it was above 52.7 µM; in test [5], 19.6 µM; in test [6] it was above 100 µM. For the same compound, the TGI in test [7] and in test [8] was above 100 µM throughout.

As to `COc1ccc(CC(=O)c2ccc(O)cc2O)cc1`, the GI50 was above 100 µM in test [1]; 49.4 µM in test [2]; above 100 µM in test [3]; above 100 µM in test [4]; 57.4 µM in test [5]; 41.1 µM in test [6]. Moreover, the GI50 in test [7] and in test [8] was above 100 µM each time. Besides, the TGI in test [1], in test [2], in test [3], in test [4], in test [5] and in test [6] was above 100 µM each time. Besides, the TGI in test [7] and in test [8] was above 100 µM in each case.

With `Nc1c(C(=O)c2cccc(C#CCO)c2)cnn1-c1ccc(F)cc1`, the GI50 in test [1], in test [2], in test [3], in test [4], in test [5] and in test [6] was above 25 µM each time. Moreover, the GI50 in test [7] and in test [8] was above 25 µM throughout. The TGI in test [1], in test [2], in test [3], in test [4], in test [5] and in test [6] was above 25 µM each time. The TGI in test [7] and in test [8] was above 25 µM in each case.

For `COC(=N)c1c(N)[n+]([O-])c2ccc(F)cc2[n+]1[O-]`, the GI50 in test [1], in test [2], in test [3], in test [4], in test [5] and in test [6] was above 100 µM each time. Also, the GI50 in test [7] and in test [8] was above 100 µM in each case. Moreover, the TGI in test [1], in test [2], in test [3], in test [4], in test [5] and in test [6] was above 100 µM each time. Besides, the TGI in test [7] and in test [8] was above 100 µM each time.

`O=[N+]([O-])c1ccc(N2CCC(CCCC3CCN(c4ccc([N+](=O)[O-])cc4[N+](=O)[O-])CC3)CC2)c([N+](=O)[O-])c1`: the TGI in test [1] came out at 28.7 µM; in test [2], 35.9 µM; in test [3], 61.3 µM; in test [4], 30.2 µM; in test [5] it was 53.2 µM; in test [6], 33.7 µM. For the same compound, the TGI in test [7] turned out to be 37.5 µM; in test [8], 29.2 µM.

Regarding `COC(=O)Nc1nc2ccc(Oc3cccc(NC(=O)Nc4cc(C(F)(F)F)ccc4F)c3)cc2[nH]1`, the GI50 in test [1] was above 25 µM; in test [2], 10.1 µM; in test [3] it was above 25 µM; in test [4] it was 9.08 µM; in test [5], 15.8 µM; in test [6], 14.3 µM. For the same compound, the GI50 in test [7] is 10.2 µM; in test [8], 15.4 µM. The TGI in test [1], in test [2], in test [3], in test [4], in test [5] and in test [6] was above 25 µM throughout. The TGI in test [7] and in test [8] was above 25 µM throughout.

On to `COc1ccc(N(/C=C/C(=O)C(F)(F)F)CC(=O)c2ccc(F)cc2)cc1`, for which the GI50 in test [1] is 21.1 µM; in test [2], 19.7 µM; in test [3], 36.2 µM; in test [4], 16.4 µM; in test [5], 16.1 µM; in test [6] it was 23.1 µM. Also, the GI50 in test [7] is 42.9 µM; in test [8], 13.1 µM. Further, the TGI was 52.4 µM in test [1]; 95.1 µM in test [2]; above 100 µM in test [3]; 39.1 µM in test [4]; 43.6 µM in test [5]; 85.7 µM in test [6]. The TGI in test [7] was above 100 µM; in test [8], 28.3 µM.

The values are drawn from PubChem BioAssay (NCI).
